Our source for the IC50 values is patent publication US20240317744A1, “Bicyclic Ureas As Kinase Inhibitors” (Incyte Corporation, priority 2023, published 2024).

In test [1] the target is T1, catalytic domain (JH1, amino acids 826-1132) of human JAK2 (Homo sapiens, UniProt O60674).
T1 construct: catalytic domain (JH1, amino acids 826-1132) of human JAK2; FLAG (N); biotin (biotinylated); purchased Carna Biosciences 08-445-20N; host or cells: baculovirus expression system
As to the kind of experiment: JAK2 LanthaScreen JH1 Binding Assay. The note with it: JAK2 JH1 1.5 nM, 50 nM tracer, 2 hours at 25° C.; read-out: JH1 BIND. As for the experimental part: Example A. JAK2 LanthaScreen JH1 Binding Assay
JAK2 JH1 binding assay utilizes catalytic domain (JH1, amino acids 826-1132) of human JAK2 expressed as N-terminal FLAG-tagged, biotinylated protein in a baculovirus expression system (Carna Biosciences, Product #08-445-20N). The assay was conducted in black 384-well polystyrene plates in a final reaction volume of 20 μL. JAK2 JH1 (1.5 nM) was incubated with compounds (100 nL serially diluted in DMSO) in the presence of 50 nM fluorescent JAK2-JH1 tracer and 0.5 nM Streptavidin-Tb cryptate (Cisbio Part #610SATLB) in assay buffer (50 mM Tris, pH=7.5, 10 mM MgCl2, 0.01% Brij-35, 0.1% BSA, 1 mM EGTA, 5% Glycerol and 5 mM DTT). Non-specific binding was accessed in the presence of 2 mM ATP. After incubation for 2 hours at 25° C., LanthaScreen signals were read on a PHERAstar FS plate reader (BMG LABTECH). Data was analyzed with IDBS XLfit and GraphPad Prism 5.0 software using a four parameter dose response curve to determine IC50 for each compound.
Background: Time-resolved FRET reads energy transfer from a long-lived donor to a nearby acceptor.

The target of test [2] is T2, pseudo-kinase domain (JH2, amino-acids 536-812) of human Wild Type JAK2 (Homo sapiens, UniProt O60674, F794H/W659A/W777A).
T2 construct: pseudo-kinase domain (JH2, amino-acids 536-812 with 3 surface mutations W659A, W777A, F794H); His (C); purchased BPS Bioscience 79463; host or cells: baculovirus expression system
As to the kind of experiment: JAK2 LanthaScreen JH2-WT Binding Assay. The following applies: JAK2 JH2-WT 0.145 nM, 50 nM tracer, 1 hour at 25° C.; read-out: JH2 BIND WT. As for the experimental part:
Example B. JAK2 LanthaScreen JH2-WT Binding Assay
JAK2 JH2-WT binding assay utilizes pseudo-kinase domain (JH2, amino-acids 536-812 with 3 surface mutations W659A, W777A, F794H) of human Wild Type JAK2 expressed as C-terminal His-Avi-tagged, biotinylated protein in a baculovirus expression system (BPS Bioscience, Catalog #79463). The assay was conducted in black 384-well polystyrene plates in a final reaction volume of 20 μL. JAK2 JH2-WT (0.145 nM) was incubated with compounds (100 nL serially diluted in DMSO) in the presence of 50 nM Fluorescent JAK2-JH2 Tracer (MedChem Express Catalog #HY-102055) and 0.25 nM Streptavidin-Tb cryptate (Cisbio Part #610SATLB) in assay buffer (50 mM Tris, pH=7.5, 10 mM MgCl2, 0.01% Brij-35, 0.1% BSA, 1 mM EGTA, 5% Glycerol and 5 mM DTT). Non-specific binding was accessed in the presence of 2 mM ATP. After incubation for 1 hour at 25° C., LanthaScreen signals were read on a PHERAstar FS plate reader (BMG LABTECH). Data was analyzed with IDBS XLfit and GraphPad Prism 5.0 software using a four parameter dose response curve to determine IC50 for each compound.

Test [3] deals with T3, pseudo-kinase domain (JH2, amino-acids 536-812) of human V617F mutant JAK2 (Homo sapiens, UniProt O60674, F794H/V617F/W659A/W777A).
T3 construct: pseudo-kinase domain (JH2, amino-acids 536-812 with 3 surface mutations W659A, W777A, F794H); His (C); purchased BPS Bioscience 79498; host or cells: baculovirus expression system
As to the kind of experiment: JAK2 LanthaScreen JH2-V617F Binding Assay. The note with it: JAK2 JH2-V617F 0.26 nM, 50 nM tracer, 1 hour at 25° C.; read-out: JH2 BIND V617F. The procedure, abridged: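 This is a TR-FRET tracer-displacement format with a 1 h, 25 °C incubation. It combined 0.26 nM baculovirus-expressed biotinylated JH2-V617F, 50 nM fluorescent JAK2-JH2 tracer and 0.25 nM streptavidin-Tb cryptate in 50 mM Tris pH 7.5, 10 mM MgCl2, 5 mM DTT. Background came from 2 mM ATP, and IC50 values were from four-parameter dose-response fits.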

The target of test [4] is catalytic domain (JH1, amino acids 808-1132) of human JAK2 (Homo sapiens, UniProt O60674). As to the kind of experiment: JAK2 HTRF Enzyme Activity Assay. It counts as biochemical. The note with it: ATP 30 µM, 60 minutes at 25° C.; read-out: V617F ENZ 30 UM.
Chain of catalytic domain (JH1, amino acids 808-1132) of human JAK2 (O60674 808-1132 limits assumed): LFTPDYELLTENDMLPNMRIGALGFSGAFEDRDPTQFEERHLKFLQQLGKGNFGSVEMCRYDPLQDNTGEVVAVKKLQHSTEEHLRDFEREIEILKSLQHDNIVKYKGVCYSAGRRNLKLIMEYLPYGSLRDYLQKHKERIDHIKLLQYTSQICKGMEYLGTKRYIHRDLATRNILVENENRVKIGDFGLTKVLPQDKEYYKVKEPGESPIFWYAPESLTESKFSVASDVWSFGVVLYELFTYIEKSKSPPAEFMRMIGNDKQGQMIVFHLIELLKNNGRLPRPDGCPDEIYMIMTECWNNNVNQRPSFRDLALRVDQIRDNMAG

T1 sequence (O60674 826-1132): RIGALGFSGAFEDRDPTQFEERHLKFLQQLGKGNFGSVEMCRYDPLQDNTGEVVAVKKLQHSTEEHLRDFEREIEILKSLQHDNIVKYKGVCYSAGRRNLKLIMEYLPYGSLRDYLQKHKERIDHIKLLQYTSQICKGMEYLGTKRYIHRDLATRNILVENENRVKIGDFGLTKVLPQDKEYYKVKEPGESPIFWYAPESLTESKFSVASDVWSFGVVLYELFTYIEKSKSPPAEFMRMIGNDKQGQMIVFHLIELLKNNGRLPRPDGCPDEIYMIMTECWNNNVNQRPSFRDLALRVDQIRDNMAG
T2 sequence (O60674 536-812 W659A/W777A/F794H): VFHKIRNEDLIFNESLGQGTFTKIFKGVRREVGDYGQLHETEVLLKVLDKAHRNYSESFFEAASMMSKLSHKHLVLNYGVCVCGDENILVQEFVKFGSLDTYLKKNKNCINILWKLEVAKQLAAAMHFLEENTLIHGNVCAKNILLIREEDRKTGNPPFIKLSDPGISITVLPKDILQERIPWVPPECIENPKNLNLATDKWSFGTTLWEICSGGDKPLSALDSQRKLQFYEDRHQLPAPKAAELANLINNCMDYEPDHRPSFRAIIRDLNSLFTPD
T3 sequence (O60674 536-812 V617F/W659A/W777A/F794H): as the sequence (O60674 536-812 W659A/W777A/F794H) above, with V82F counted along it

`COC(=O)Nc1cc(Nc2cc3c(cn2)n(C)c(=O)n3[C@@H]2CCC(F)(F)C2)cc(-c2cnn(C)c2)c1` [Example 30, Methyl (R)-(3-((1-(3,3-difluorocyclopentyl)-3-methyl-2-oxo-2,3-dihydro-1H-imidazo[4,5-c]pyridin-6-yl)amino)-5-(1-methyl-1H-pyrazol-4-yl)phenyl)carbamate]: the IC50 in test [1] is over 1000 nM; in test [2] it was 10 to 100 nM; in test [3], 100 to 500 nM; in test [4], over 1000 nM.

As for `COC(=O)N[C@@H]1CC[C@@H](n2c(=O)n(C)c3cnc(Nc4cccc(-c5ccc(OC)nc5)n4)cc32)C1` [Example 5, Methyl ((1R,3R)-3-(6-((6′-methoxy-[2,3′-bipyridin]-6-yl)amino)-3-methyl-2-oxo-2,3-dihydro-1H-imidazo[4,5-c]pyridin-1-yl)cyclopentyl)carbamate], the IC50 in test [1] is over 1000 nM; in test [2], at most 10 nM; in test [3], at most 10 nM; in test [4] it was over 1000 nM.

Regarding `CCOC(=O)NC1CC2(C1)CC(n1c(=O)n(C)c3cnc(Nc4cc(NC(=O)OC)cc(-c5cnn(C)c5)c4)cc31)C2` (stereo not drawn) [Example 25, Methyl (3-((1-(6-((ethoxycarbonyl)amino)spiro[3.3]heptan-2-yl)-3-methyl-2-oxo-2,3-dihydro-1H-imidazo[4,5-c]pyridin-6-yl)amino)-5-(1-methyl-1H-pyrazol-4-yl)phenyl)carbamate], the IC50 in test [1] was over 1000 nM; in test [2], 10 to 100 nM; in test [3], 100 to 500 nM; in test [4], over 1000 nM.

With `COC(=O)N[C@@H]1CC[C@@H](n2c(=O)n(C)c3cnc(Nc4cccc(N5CCC(N)C5)n4)cc32)C1` (stereo partly drawn) [Example 64, Methyl ((1R,3R)-3-(6-((6-(3-aminopyrrolidin-1-yl)pyridin-2-yl)amino)-3-methyl-2-oxo-2,3-dihydro-1H-imidazo[4,5-c]pyridin-1-yl)cyclopentyl)carbamate], the IC50 was over 1000 nM in test [1], 10 to 100 nM in test [2], 10 to 100 nM in test [3] and over 1000 nM in test [4].

For the compound `COC(=O)N[C@@H]1CC[C@@H](n2c(=O)n(C)c3cnc(Nc4cc(NC(=O)OC5CC5)cc(OC)c4)cc32)C1` [Example 55, Methyl ((1R,3R)-3-(6-((3-((cyclopropoxycarbonyl)amino)-5-methoxyphenyl)amino)-3-methyl-2-oxo-2,3-dihydro-1H-imidazo[4,5-c]pyridin-1-yl)cyclopentyl)carbamate], the IC50 in test [1] is over 1000 nM; in test [2] it was at most 10 nM; in test [3] it was 10 to 100 nM; in test [4], over 1000 nM.

As to `[2H]C([2H])([2H])n1c(=O)n([C@@H]2CC[C@@H](NC(=O)OC)C2)c2cc(Nc3cc(C(C)(C)O)cc(-c4cnc(C(F)(F)F)s4)n3)ncc21` [Example 95, Methyl ((1R,3R)-3-(6-((4-(2-hydroxypropan-2-yl)-6-(2-(trifluoromethyl)thiazol-5-yl)pyridin-2-yl)amino)-3-(methyl-d3)-2-oxo-2,3-dihydro-1H-imidazo[4,5-c]pyridin-1-yl)cyclopentyl)carbamate], the IC50 in test [1] is over 1000 nM; in test [2], at most 10 nM; in test [3], at most 10 nM; in test [4], over 1000 nM.

`Cn1cc(-c2cc(NC(=O)OC3CCC3)cc(Nc3cc4c(cn3)n(C)c(=O)n4[C@@H]3CC[C@@H](NC(=O)Oc4ccc(F)cc4)C3)c2)cn1` [Example 49, 4-Fluorophenyl ((1R,3R)-3-(6-((3-((cyclobutoxycarbonyl)amino)-5-(1-methyl-1H-pyrazol-4-yl)phenyl)amino)-3-methyl-2-oxo-2,3-dihydro-1H-imidazo[4,5-c]pyridin-1-yl)cyclopentyl)carbamate]: the IC50 in test [1] was over 1000 nM; in test [2] it was at most 10 nM; in test [3], at most 10 nM; in test [4] it was over 1000 nM.

Turning to `[2H]C([2H])([2H])n1c(=O)n([C@@H]2CC[C@@H](NC(=O)OC)C2)c2cc(Nc3cc(C(=O)N4CCOC5CC54)c4cccc(C(F)(F)F)c4n3)ncc21` (stereo partly drawn) [Example 13, Methyl ((1R,3R)-3-(6-((4-(2-oxa-5-azabicyclo[4.1.0]heptane-5-carbonyl)-8-(trifluoromethyl)quinolin-2-yl)amino)-3-(methyl-d3)-2-oxo-2,3-dihydro-1H-imidazo[4,5-c]pyridin-1-yl)cyclopentyl)carbamate], the IC50 in test [1] is 500 to 1000 nM; in test [2], at most 10 nM; in test [3] it was at most 10 nM; in test [4], 500 to 1000 nM.

For the compound `COC(=O)N[C@@H]1CC[C@@H](n2c(=O)n(C)c3cnc(Nc4cccc(OC5CCC(C#N)CC5)n4)cc32)C1` (stereo partly drawn) [Example 22, Methyl ((1R,3R)-3-(6-((6-((4-cyanocyclohexyl)oxy)pyridin-2-yl)amino)-3-methyl-2-oxo-2,3-dihydro-1H-imidazo[4,5-c]pyridin-1-yl)cyclopentyl)carbamate], the IC50 in test [1] was over 1000 nM; in test [2], 10 to 100 nM; in test [3] it was 10 to 100 nM; in test [4], over 1000 nM.

On to `CCOC(=O)N[C@@H]1CC[C@@H](n2c(=O)n(C)c3cnc(Nc4cc(NC(=O)OC5CCC5)cc(-c5cnn(C)c5)c4)cc32)C1` [Example 46, Ethyl ((1R,3R)-3-(6-((3-((cyclobutoxycarbonyl)amino)-5-(1-methyl-1H-pyrazol-4-yl)phenyl)amino)-3-methyl-2-oxo-2,3-dihydro-1H-imidazo[4,5-c]pyridin-1-yl)cyclopentyl)carbamate], for which the IC50 in test [1] was over 1000 nM; in test [2], 10 to 100 nM; in test [3], 10 to 100 nM; in test [4], over 1000 nM.

As for `[2H]C([2H])([2H])n1c(=O)n([C@H]2CC[C@@](C)(NC(=O)C3CC3)CC2)c2cc(Nc3ccc4c(n3)c(-c3cnn(C(F)(F)F)c3)nn4CC(C)(C)O)ncc21` [Example 120, N-((1s,4s)-4-(6-((1-(2-Hydroxy-2-methylpropyl)-3-(1-(trifluoromethyl)-1H-pyrazol-4-yl)-1H-pyrazolo[4,3-b]pyridin-5-yl)amino)-3-(methyl-d3)-2-oxo-2,3-dihydro-1H-imidazo[4,5-c]pyridin-1-yl)-1-methylcyclohexyl)cyclopropanecarboxamide], the IC50 was over 1000 nM in test [1], at most 10 nM in test [2], at most 10 nM in test [3] and over 1000 nM in test [4].

With `COC(=O)N[C@@H]1CC[C@@H](n2c(=O)n(C)c3cnc(Nc4nc(-c5ccncc5)cs4)cc32)C1` [Example 68, Methyl ((1R,3R)-3-(3-methyl-2-oxo-6-((4-(pyridin-4-yl)thiazol-2-yl)amino)-2,3-dihydro-1H-imidazo[4,5-c]pyridin-1-yl)cyclopentyl)carbamate], the IC50 in test [1] is over 1000 nM; in test [2] it was 500 to 1000 nM; in test [3] it was 500 to 1000 nM; in test [4] it was over 1000 nM.
